System: ID8 cells
Experiment: Live-cell labeling and in vitro imaging: cellular uptake of NIR fluorophores
Format: cell-based, murine
Conditions: fluorescence microscopy
Description: FIG. 2 Cellular uptake of pH sensing NIR fluorophores via membrane transporters: In vitro tumor cell uptake of the pH sensing NIR probes under normoxic and hypoxic conditions. Murine cancer cell line ID8 cells were incubated at normoxic or hypoxic conditions (1% O2) for 24 h at 37° C. and then incubated for 30 min in the presence of 0.1 μM NIR probes. (a) Representative fluorescence images of cells are shown. The contrast was normalized across all images. Scale bar=100 μm. (b) Quantitative time-course measurements of the fluorescence intensity in cells. *P<0.05, **P<0.01 by two-way ANOVA followed by Tukey's multiple comparisons test (Normoxia vs. Hypoxia). Error bars show mean #s.d. (c) Inhibition assay of transporters to determine the entry mechanisms in ID8 cells. […] Representative fluorescence images of cells are shown. […] (d) Quantitative measurements of the fluorescence intensity in cells. *P<0.05 by two-way ANOVA followed by Tukey's multiple comparisons test. […]
Live-cell labeling and in vitro imaging: Murine ovarian cancer cells (ID8 cells) were obtained from Dr. Wang's lab in the Vincent Center for Reproductive Biology at Massachusetts General Hospital (MGH). […] Image acquisition and analysis were performed using IPLab software (Scanalytics, Fairfax, VA), and the fluorescent intensity of each cell was measured using ImageJ (National Institutes of Health, Bethesda, MD). […]

| SMILES | accumulation in cells |
| --- | --- |
| CCN1/C(=C/C=C2\CCCC(/C=C/C3=[N+](CC)c4ccccc4C3(C)C)=C2c2ccccc2)C(C)(C)c2ccccc21 [PH03, 1-Ethyl-2-((E)-2-((E)-6-(2-((E)-1-ethyl-3,3-dimethylindolin-2-ylidene)ethylidene)-3,4,5,6-tetrahydro-[1,1′-biphenyl]-2-yl)vinyl)-3,3-dimethyl-3H-indol-1-ium iodide] | time-dependent manner |
| CCN1/C(=C/C=C2\CCCC(/C=C/C3=[N+](CC)c4ccccc4C3(C)C)=C2N2CCNCC2)C(C)(C)c2ccccc21 [PH08] | time-dependent manner |

Source: patent US20250144250A1, “PH-SENSITIVE FLUOROPHORES” (The General Hospital Corporation, priority 2022, published 2025)
